The values below come from PubChem BioAssay AID493003 (Sanford-Burnham Center for Chemical Genomics, 2010).

Broadly, the pIC50 is the negative decadic logarithm of the IC50, by convention in mol/L. As usually defined, the IC50 is the midpoint of a concentration-inhibition curve.

The test system of this experiment is S. cerevisiae tim10-1 mutant growth, luminescence. The experiment in a line: tim10-1 yeast growth inhibition potency – luminescence, S. cerevisiae, uHTS hits, dose response (AID 493003).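 Also: yeast growth measured after about 22 hours at 25 °C.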

Each structure is given as a SMILES string. pIC50: −log10 of the molar value. Calls of active or inactive are those of the source. No rule for the calls is given here.

On to `CCOc1ccccc1N1CCN(C(=O)Nc2ccc(F)c(Cl)c2)CC1`, for which the pIC50 was 4.22.
The same measure, in the same setting: as for `Cc1ccc(NC(=O)CN2CCC3(O)CCCCC3C2c2ccc3c(c2)OCO3)c(C)c1` (configuration not stated), the figure is 4.22; as for `CCN(CC1COc2ccccc2O1)C(=S)Nc1ccccc1` (configuration not stated), 4.19.
The same measure, in the same setting: as for `Cc1cc(C)n(-c2nc(-n3nc(C)cc3C)c3c4c(sc3n2)COC(C)(C)C4)n1`, the figure is 4.72.
Still for that read-out and setting: as for `COc1ccc(/C=C/C(=O)c2ccccc2)cc1Cn1nnc2ccccc21`, the figure is 5.19; as for `NC(=O)C1CCN(C2CC(=O)N(c3ccc(F)c(Cl)c3)C2=O)CC1` (configuration not stated), 4.67.
Regarding `O=[N+]([O-])/C(C(Cl)=C(Cl)Cl)=C(\Sc1ccccc1)N1CCCCC1`, the pIC50 was 4.28.
`O=C(Nc1nccs1)c1ccc(Br)c(S(=O)(=O)N2CCOCC2)c1`: the pIC50 was 4.56.
For the compound `Cn1c2ccccc2c(=O)c2ccc(C#CC3(O)CCCCC3)cc21`, the pIC50 is 4.61.
Same read-out and setting: as for `CC(C)NC(=S)N/N=C1\CCCCC1C1CCCCC1` (configuration not stated), the figure is 4.43; as for `CCn1nccc1C(=O)Nc1ccc(Cl)c(Cl)c1`, 4.61.
On the same count and under the same terms, as for `CCc1cccc(NC(=O)CS(=O)Cc2nc(-c3ccc(C)cc3)oc2C)c1` (configuration not stated), the figure is 4.57; as for `COc1c(OC(C)=O)ccc(/C=C/c2ccc3ccccc3n2)c1[N+](=O)[O-]`, 4.36.
On the same count and under the same terms, as for `COc1ccc2[nH]c3c(=O)n4c(nc3c2c1)SCC4`, the figure is 4.10.
For `O=C(c1cccs1)c1c[nH]cc1-c1ccccc1`, the IC50 was > 100 µM (inactive).
Turning to `Cc1cccc(NC(=S)N/N=C2/CCCCc3ccccc32)c1`, the pIC50 is 5.00.
As to `CC(C)(C)c1ccc(CN2N=Nc3ccccc3S2(=O)=O)cc1`, the negative logarithm of the IC50 (pIC50) was 5.21.
The same measure, in the same setting: as for `Cc1cccc(NC(=O)c2ccc([N+](=O)[O-])s2)n1`, the figure is 5.19; as for `COc1ccc(Br)cc1[C@H]1[C@H]2C=CC[C@@H](C)[C@@H]2C(=O)N1Cc1ccccc1`, 5.10; as for `Cc1ccccc1NC1=NC(=S)N(c2ccccc2)C12CCCCC2`, 4.83.
Consider `COc1cc(C(=O)Nc2ccc(Cl)c(C(F)(F)F)c2)cc(OC)c1OC`, for which the pIC50 is 4.77.
Same read-out and setting: as for `CCOC(=O)c1sc(=S)n(Cc2ccccc2)c1N`, the figure is 4.30; as for `O=c1c2ccccc2[se]n1-c1ccccc1`, 5.00.
Regarding `COC(=O)COc1ccc(S(=O)(=O)N2CCN(c3ccccc3F)CC2)cc1C`, the IC50 is > 100 µM (inactive).
For the compound `Cc1nonc1C1CCCN1C(=O)c1cc(COc2cccc(C(F)(F)F)c2)on1` (configuration not stated), the pIC50 was 4.76.
In the case of `CCCOc1ccccc1NC(=O)/C=C/C(N)=O`, the pIC50 is 5.25.
On to `Nc1nc(Cl)cc(N2CCC(c3cc(-c4ccc(Cl)cc4)n[nH]3)CC2)n1`, for which the pIC50 is 4.75.
The same measure, in the same setting: as for `CCCn1c(CC)nc([N+](=O)[O-])c1S(=O)(=O)c1ccccc1`, the figure is 4.88; as for `N/C(=N\OC(=O)c1cccnc1)c1ccc(Cl)cc1Cl`, 4.75; as for `Clc1cccc(Cl)c1/C=C/c1ccn[nH]1`, 4.64.
Consider `Cc1ccc(NC2=C/C(=N\S(=O)(=O)c3cccs3)c3ccccc3C2=O)c(C)c1`, for which the pIC50 was 5.40.
With `Cc1cc(N2C3CCC2CC(O)(c2ccc(F)cc2)C3)nc(-c2ccccc2)n1` (configuration not stated), the pIC50 was 4.60.
Same read-out and setting: as for `N#Cc1ccccc1Cn1c(=O)n(C2CCCC2)c(=O)c2ccccc21`, the figure is 4.60; as for `Cc1nc2ccccn2c1P(=S)(N1CCCCC1)N1CCCCC1`, 4.40; as for `COc1ccc(C2(O)CC3CCC(C2)N3c2cc(C)nc(-c3ccccc3)n2)cc1` (configuration not stated), 4.74.
For `Cn1c(CSc2nnc(SCc3ccccc3)s2)nc2ccccc21`, the pIC50 was 4.71.
As to `O=C(Nc1ccc(N2CCN(C(=O)c3ccccc3F)CC2)cc1)c1cncc(Br)c1`, the negative logarithm of the IC50 (pIC50) was 4.38.
The same measure, in the same setting: as for `COc1cc(Br)cc(/C=C/c2ccc3cccc(O)c3n2)c1O`, the figure is 4.33.
Still for that read-out and setting: as for `Fc1ccccc1CNC(=S)Nc1cccc(C(F)(F)F)c1`, the figure is 4.98; as for `CCn1c(CSc2nc3ccccc3s2)n[nH]c1=S`, 4.31.
On the same count and under the same terms, as for `CC(CC(=O)Nc1ncc([N+](=O)[O-])s1)c1ccccc1` (configuration not stated), the figure is 4.73.
As to `CCSc1ccc2c(c1)N(CCCN1CCN(C)CC1)c1ccccc1S2`, the pIC50 is 4.60.
Same read-out and setting: as for `Cc1ccc(CNC(=O)c2ccc(Cn3nc(C)c(Cl)c3C)o2)cc1`, the figure is 4.99; as for `Fc1c(F)c(C(F)(F)F)c(F)c(F)c1N/N=C\c1cccs1`, 4.96; as for `CCOC(=O)c1sc(-c2ccc(Br)cc2)cc1N`, 4.73.
As to `COc1c(/C=C2\SC(=Nc3ccccc3Cl)NC2=O)cccc1[N+](=O)[O-]`, the pIC50 is 4.65.
The same measure, in the same setting: as for `O=C(c1cc(COc2cccc(C(F)(F)F)c2)on1)N1C[C@@H]2CCC[C@H]1C2`, the figure is 4.56; as for `CC/C(=N\Nc1ccccc1[N+](=O)[O-])c1ccc(O)cc1`, 4.70; as for `O=C(CSc1nc2cc(Cl)ccc2s1)c1ccco1`, 4.30.
As to `CO/N=C/c1ccc(Sc2ccccc2N)c([N+](=O)[O-])c1`, the negative logarithm of the IC50 (pIC50) is 4.25.
Still for that read-out and setting: as for `Cc1cc(C)cc(NC(=O)c2cc(S(=O)(=O)NCc3ccco3)ccc2F)c1`, the figure is 4.49.
With `COc1ccc(-c2cc(C3CCN(C(=O)OC(C)(C)C)CC3)[nH]n2)cc1`, the pIC50 was 4.29.
The same measure, in the same setting: as for `COC(=O)c1cc(NC(=S)Nc2cc(Cl)cc(Cl)c2)cc(C(=O)OC)c1`, the figure is 4.64; as for `O=C(CN1CCN(S(=O)(=O)c2ccc(Cl)cc2)CC1)Nc1ccc2c(c1)CCC2`, 4.60.
On to `COc1ccc(-n2cc(-c3ccccc3)c3c(=S)nc[nH]c32)cc1`, for which the pIC50 is 4.89.
The same measure, in the same setting: as for `Cc1ccc(-c2csc3ncnc(Nc4ccc(N5CCOCC5)cc4)c23)cc1`, the figure is 4.27; as for `CCOC(=O)c1c(N)sc2c(OC)c(Br)ccc12`, 4.52; as for `COc1ccc(C(=O)Nc2ccc(-n3nncc3C(C)(C)C)cc2)cc1`, 4.79.
Still for that read-out and setting: as for `Cc1cccc(Nc2ncccc2C(=O)NCc2cccs2)c1C`, the figure is 4.27; as for `Cc1ccccc1OCC(=O)Nc1ccc(Cc2ccncc2)cc1`, 4.38; as for `CC(Oc1ccc(Cl)cc1Cl)C(=O)NC1=NN(c2ccccc2)C(=O)C1` (configuration not stated), 4.82.
As to `CCOC(=O)c1c(OCC)[nH]c2c1cc(O)c1ccccc12`, the pIC50 is 4.75.
On to `CC(C)CN(CC(C)C)C(=S)Nc1ccc(Cl)cc1`, for which the negative-log IC50 (pIC50) is 4.81.
Same read-out and setting: as for `COc1cccc(-c2csc(N3CCN(C(=S)Nc4ccccc4Cl)CC3)n2)c1`, the figure is 4.67; as for `COc1ccc(C)cc1NC(=O)NCCC1=CCCCC1`, 4.49.
On the same count and under the same terms, as for `OCCN1CCN(CCCN2c3ccccc3Sc3ccc(C(F)(F)F)cc32)CC1`, the figure is 4.50; as for `CN1C(=O)C(O)(CC(=O)c2cccc(-n3cccc3)c2)c2ccccc21` (configuration not stated), 4.40; as for `O=[N+]([O-])c1cccc(NC(=S)NCCc2ccccc2)c1`, 4.48.
Same read-out and setting: as for `CC(C)c1ccc(S(=O)(=O)N2CCN(CC(=O)Nc3ccc4c(c3)OCO4)CC2)cc1`, the figure is 4.12; as for `CCCOc1ccc(CN(CCC#N)C(=S)NC(=O)c2ccccc2)cc1`, 4.96; as for `O=C(Nc1cccc(N2C(=O)C=CC2=O)c1)c1cccs1`, 5.36.
Consider `N/C(Cc1ccc(Cl)cc1Cl)=N\OC(=O)Cc1ccc(Cl)cc1`, for which the pIC50 was 5.85.
On the same count and under the same terms, as for `Cc1ccc(/C(N)=N/OC(=O)C(C)c2ccc([N+](=O)[O-])cc2)cc1` (configuration not stated), the figure is 5.00; as for `Cc1cccc(/C=N/n2c(COc3ccccc3)n[nH]c2=S)c1`, 4.44.
`CCOC(=O)c1ccc(N=c2ssnc2Cl)cc1`: the pIC50 is 4.98.
For `COc1ccc(/C(C)=N/NC(=S)NCCc2ccccc2)cc1`, the pIC50 was 5.24.
The same measure, in the same setting: as for `N/C(=N\OC(=O)c1cccc(Cl)c1)c1ccccn1`, the figure is 4.57.
As to `Clc1ccc(Nc2nc(C3CC3)cs2)cc1`, the pIC50 was 4.40.
As for `COc1ccc(Cl)cc1NC(=S)NCCc1ccc(F)cc1`, the pIC50 was 5.15.
In the case of `CCCOc1ccc(N2C(=O)CC(N3CCC(O)(c4cccc(C(F)(F)F)c4)CC3)C2=O)cc1` (configuration not stated), the negative-log IC50 (pIC50) is 4.89.
As for `COC(=O)N1C(=O)[C@@](c2ccccc2)(C2CCCCC2)N1C(=O)OC`, the pIC50 was 4.21.
Still for that read-out and setting: as for `Cc1ccccc1C(=O)NC(=S)Nc1ccccc1N1CCCC1`, the figure is 4.76; as for `COc1ccccc1C/C(N)=N/OC(=O)c1ccco1`, 4.43.
`CC(C)Cn1c2c(c(O)c(C(=O)Nc3nccs3)c1=O)CCCC2`: the negative logarithm of the IC50 (pIC50) was 4.01.
Same read-out and setting: as for `Clc1ccccc1OCc1nnc(-c2ccccc2Br)o1`, the figure is 4.55; as for `O=C(Nc1ccccc1Br)C1CC(=O)N(c2ccc3c4c(cccc24)CC3)C1` (configuration not stated), 4.11; as for `O=C(c1ccc2ncsc2c1)N1CCN(c2cccc(C(F)(F)F)c2)CC1`, 4.42.
The same measure, in the same setting: as for `Fc1cc(F)cc(Nc2nc(Cl)nc(NC3CCCC3)n2)c1`, the figure is 4.42; as for `COc1ccc(C(=O)O/N=C(\N)c2ccccc2Cl)cc1OC`, 4.82.
With `O=C(NNC(=S)Nc1cccc(C(F)(F)F)c1)c1ccc(Cl)cc1Cl`, the pIC50 is 5.07.
Take `COc1ccc(Br)c(-c2nnc(CS(=O)(=O)c3ccccc3)o2)c1`: the pIC50 is 4.55.
As to `N/C(Cc1ccc(Cl)cc1)=N\OC(=O)c1ccc2ccccc2c1`, the negative logarithm of the IC50 (pIC50) was 6.60.
Turning to `CCOc1cc(-c2c(C#N)c(N)nc3c2CCCC3C)ccc1O` (configuration not stated), the pIC50 was 4.36.
Same read-out and setting: as for `Cc1cccc(C2=NNC(=O)C(c3ccc(Cl)cc3)C2)c1` (configuration not stated), the figure is 4.47.
Turning to `CCNc1ccc(Br)cc(C(=O)/C=C/c2c(Cl)cccc2Cl)c1=O`, the pIC50 was 4.66.
Still for that read-out and setting: as for `CCN(CC)c1ccc(NC(=O)CCCCCN2C(=O)c3ccccc3C2=O)cc1`, the figure is 4.84; as for `C=CCn1c(N)c(C(=O)Nc2cccc(C)c2)c2nc3ccccc3nc21`, 4.77; as for `COc1ccc(OCC(=O)Nc2ccc(S(=O)(=O)N3CCCCC3)cc2)cc1`, 4.44.
Still for that read-out and setting: as for `Cc1cc(C)cc(N2C(=O)CC(Sc3nnnn3-c3ccccc3)C2=O)c1` (configuration not stated), the figure is 4.87; as for `Cc1ccc(N2C(=O)CC(Sc3cccs3)C2=O)cc1` (configuration not stated), 4.62.
Take `O=C(Cc1ccc(Cl)c(Cl)c1)Nc1ccc(SC(F)F)cc1`: the pIC50 is 4.33.
`Cc1nn(-c2ccccc2)c2c1C1(C(=O)N(C)c3ccccc31)C(C#N)=C(N)O2` (configuration not stated): the pIC50 was 4.27.
